Data on 45 compounds can be found in patent publication US20250221966A1, “RXFP1 AGONISTS” (BRISTOL-MYERS SQUIBB COMPANY, priority 2021, published 2025).

pEC50: −log10 of the molar value.

What is called pEC50 is the negative decadic logarithm of the EC50, by convention in mol/L.

The target in the first assay is T1, human RXFP1 (Homo sapiens, UniProt Q9HBX9).
T1 construct: expressed in transfected cells
T1 sequence (Q9HBX9 1-757): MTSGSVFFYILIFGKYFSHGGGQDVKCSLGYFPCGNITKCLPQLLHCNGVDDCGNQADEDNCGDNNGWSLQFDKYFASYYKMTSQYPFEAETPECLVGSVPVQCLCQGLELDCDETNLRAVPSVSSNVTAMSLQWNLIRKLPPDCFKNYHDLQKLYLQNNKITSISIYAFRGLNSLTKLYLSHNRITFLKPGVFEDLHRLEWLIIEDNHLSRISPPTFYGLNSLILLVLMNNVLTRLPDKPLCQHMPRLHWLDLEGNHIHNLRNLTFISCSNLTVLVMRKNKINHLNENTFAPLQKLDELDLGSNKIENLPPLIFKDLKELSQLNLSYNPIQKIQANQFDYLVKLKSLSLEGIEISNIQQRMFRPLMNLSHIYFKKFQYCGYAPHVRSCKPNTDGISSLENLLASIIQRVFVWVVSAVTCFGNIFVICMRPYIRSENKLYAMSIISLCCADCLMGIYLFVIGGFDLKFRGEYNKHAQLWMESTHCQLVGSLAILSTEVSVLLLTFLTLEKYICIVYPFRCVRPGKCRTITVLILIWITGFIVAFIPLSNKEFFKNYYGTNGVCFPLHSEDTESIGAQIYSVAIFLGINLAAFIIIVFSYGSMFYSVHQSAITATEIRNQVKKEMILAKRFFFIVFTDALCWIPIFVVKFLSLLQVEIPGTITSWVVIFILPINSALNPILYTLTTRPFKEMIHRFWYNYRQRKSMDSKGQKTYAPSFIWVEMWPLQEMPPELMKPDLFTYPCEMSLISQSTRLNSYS
The assay is described as follows: RXFP1 cAMP assay (hRXFP1 HEK293 cAMP assay, HTRF). It counts as cell-based. The note with it: HEK293 cells stably expressing human RXFP1, 30 min at room temperature, read-out: cAMP hRXFP1 HEK293 Assay EC50. Summed up: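 HEK293 cells stably expressing human RXFP1 were suspended in HBSS (Ca/Mg) with 20 mM HEPES, 0.05% BSA and 0.5 mM IBMX, then treated with compounds (0.010 nM–50 μM, 2% DMSO final) for 30 min at room temperature. Intracellular cAMP was measured by HTRF, and potency was derived from 4-parameter logistic fits.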
On to `COc1ccccc1/C=C1\C2CCC1[C@H](C(=O)Nc1ccc(F)c(C(F)(F)F)c1)[C@@H]2NC(=O)c1cc(F)c(F)cc1OC` (stereo partly drawn) [compound 23], for which the pEC50 is 5.85.
On the same count and under the same terms, then `COc1cc(F)c(F)cc1C(=O)N[C@@H]1C2CCC(/C2=C/c2cccc(C)c2)[C@@H]1C(=O)Nc1ccc(F)c(C(F)(F)F)c1` (stereo partly drawn) [compound 24], with 7.03.
The same measure, in the same setting: then `COc1cc(F)c(F)cc1C(=O)N[C@@H]1C2CCC(/C2=C/c2cccc(C(F)(F)F)c2)[C@@H]1C(=O)Nc1ccc(F)c(C(F)(F)F)c1` (stereo partly drawn) [compound 25], with 6.70.
`COc1cc(F)c(F)cc1C(=O)N[C@@H]1C2CCC(/C2=C/c2cccc(OC(F)F)c2)[C@@H]1C(=O)Nc1ccc(F)c(C(F)(F)F)c1` (stereo partly drawn) [compound 27]: the negative logarithm of the EC50 (pEC50) was 6.42.
Same read-out and setting: then `COc1cc(F)c(F)cc1C(=O)N[C@@H]1C2CCC(/C2=C/c2cccc(OCC(F)(F)F)c2)[C@@H]1C(=O)Nc1ccc(F)c(C(F)(F)F)c1` (stereo partly drawn) [compound 28], with 6.40.
Same read-out and setting: then `CCc1cccc(/C=C2\C3CCC2[C@H](C(=O)Nc2ccc(F)c(C(F)(F)F)c2)[C@@H]3NC(=O)c2cc(F)c(F)cc2OC)c1` (stereo partly drawn) [compound 29], with 6.96; and `COc1cc(F)c(F)cc1C(=O)N[C@@H]1C2CCC(/C2=C/c2cccc(F)c2)[C@@H]1C(=O)Nc1ccc(F)c(C(F)(F)F)c1` (stereo partly drawn) [compound 30], with 7.26.
Same read-out and setting: then `COc1cc(F)c(F)cc1C(=O)N[C@@H]1C2CCC(/C2=C/C2=CCCCC2)[C@@H]1C(=O)Nc1ccc(F)c(C(F)(F)F)c1` (stereo partly drawn) [compound 35], with 7.52.
In the case of `COc1cc(F)c(F)cc1C(=O)N[C@@H]1C2CCC(/C2=C/c2ccsc2)[C@@H]1C(=O)Nc1ccc(F)c(C(F)(F)F)c1` (stereo partly drawn) [compound 36], the pEC50 was 7.72.
On to `COc1cc(F)c(F)cc1C(=O)N[C@@H]1C2CCC(/C2=C/C=C/CCCc2ccccc2)[C@@H]1C(=O)Nc1ccc(F)c(C(F)(F)F)c1` (stereo partly drawn) [compound 37], for which the negative logarithm of the EC50 (pEC50) is 7.82.
`COc1cc(F)c(F)cc1C(=O)N[C@@H]1C2CCC(/C2=C/C2=CCCC2)[C@@H]1C(=O)Nc1ccc(F)c(C(F)(F)F)c1` (stereo partly drawn) [compound 38]: the negative logarithm of the EC50 (pEC50) was 6.44.
As to `COc1cc(F)c(F)cc1C(=O)N[C@@H]1C2CCC(/C2=C/c2cnoc2)[C@@H]1C(=O)Nc1ccc(F)c(C(F)(F)F)c1` (stereo partly drawn) [compound 39], the pEC50 was 7.06.
Still for that read-out and setting: then `COc1cc(F)c(F)cc1C(=O)N[C@@H]1C2CCC(/C2=C/c2ccc(F)cc2)[C@@H]1C(=O)Nc1ccc(F)c(C(F)(F)F)c1` (stereo partly drawn) [compound 41], with 7.57; and `COc1cc(F)c(F)cc1C(=O)N[C@@H]1C2CCC(/C2=C/C2=CCOCC2)[C@@H]1C(=O)Nc1ccc(F)c(C(F)(F)F)c1` (stereo partly drawn) [compound 42], with 6.89; and `C=C(C)/C=C1\C2CCC1[C@H](C(=O)Nc1ccc(F)c(C(F)(F)F)c1)[C@@H]2NC(=O)c1cc(F)c(F)cc1OC` (stereo partly drawn) [compound 43], with 7.15.
In the case of `C=C/C=C1\C2CCC1[C@H](C(=O)Nc1ccc(F)c(C(F)(F)F)c1)[C@@H]2NC(=O)c1cc(F)c(F)cc1OC` (stereo partly drawn) [compound 44], the pEC50 was 7.59.
Regarding `CCC/C=C/C=C1\C2CCC1[C@H](C(=O)Nc1ccc(F)c(C(F)(F)F)c1)[C@@H]2NC(=O)c1cc(F)c(F)cc1OC` (stereo partly drawn) [compound 45], the negative-log EC50 (pEC50) was 7.23.
Same read-out and setting: then `COc1cc(F)c(F)cc1C(=O)N[C@@H]1C2CCC(/C2=C/c2cccc(Oc3ccccc3)c2)[C@@H]1C(=O)Nc1ccc(F)c(C(F)(F)F)c1` (stereo partly drawn) [compound 46], with 6.92.
The same measure, in the same setting: then `CCC=C1C2CCC1[C@H](C(=O)Nc1ccc(F)c(C(F)(F)F)c1)[C@@H]2NC(=O)c1cc(F)c(F)cc1OC` (stereo partly drawn) [compound 47], with 7.33.
On the same count and under the same terms, then `COc1cc(F)c(F)cc1C(=O)N[C@@H]1C2CCC(/C2=C/c2cccc(Cc3ccccc3)c2)[C@@H]1C(=O)Nc1ccc(F)c(C(F)(F)F)c1` (stereo partly drawn) [compound 49], with 6.70.
With `CC=C1C2CCC1[C@H](C(=O)Nc1ccc(F)c(C(F)(F)F)c1)[C@@H]2NC(=O)c1cc(F)c(F)cc1OC` (stereo partly drawn) [compound 50], the negative logarithm of the EC50 (pEC50) is 6.82.
Still for that read-out and setting: in the case of `COc1cc(F)c(F)cc1C(=O)N[C@@H]1C2CCC(/C2=C/c2ccccc2F)[C@@H]1C(=O)Nc1ccc(F)c(C(F)(F)F)c1` (stereo partly drawn) [compound 54] it was 6.80; in that of `COc1cc(F)c(F)cc1C(=O)N[C@@H]1C2CCC(C2=C(C)C)[C@@H]1C(=O)Nc1cccc(S(=O)(=O)C(F)(F)F)c1` (stereo partly drawn) [compound 55], 6.64; in that of `COc1cc(F)c(F)cc1C(=O)N[C@@H]1C2CCC(/C2=C/Cc2ccccc2)[C@@H]1C(=O)Nc1ccc(F)c(C(F)(F)F)c1` (stereo partly drawn) [compound 57], 6.26.
On the same count and under the same terms, in the case of `COc1cc(F)c(F)cc1C(=O)N[C@@H]1C2CCC(/C2=C/C2=CCOC2)[C@@H]1C(=O)Nc1ccc(F)c(C(F)(F)F)c1` (stereo partly drawn) [compound 58] it was 5.96; in that of `COc1cc(F)c(F)cc1C(=O)N[C@@H]1C2CCC(/C2=C/c2cccc(C#N)c2)[C@@H]1C(=O)Nc1ccc(F)c(C(F)(F)F)c1` (stereo partly drawn) [compound 59], 6.05.
The same measure, in the same setting: then `COc1cc(F)c(F)cc1C(=O)N[C@@H]1C2CCC(/C2=C/c2cc(C)cc(C)c2)[C@@H]1C(=O)Nc1ccc(F)c(C(F)(F)F)c1` (stereo partly drawn) [compound 60], with 6.04; and `COc1cc(F)c(F)cc1C(=O)N[C@@H]1C2CCC(/C2=C/c2cnn(Cc3ccccc3)c2)[C@@H]1C(=O)Nc1ccc(F)c(C(F)(F)F)c1` (stereo partly drawn) [compound 61], with 6.24.
With `COc1cc(F)c(F)cc1C(=O)N[C@@H]1C2CCC(/C2=C/c2ccc(C#N)cc2)[C@@H]1C(=O)Nc1ccc(F)c(C(F)(F)F)c1` (stereo partly drawn) [compound 62], the pEC50 is 6.15.
Still for that read-out and setting: in the case of `COc1cc(F)c(F)cc1C(=O)N[C@@H]1C2CCC(/C2=C/c2cncnc2)[C@@H]1C(=O)Nc1ccc(F)c(C(F)(F)F)c1` (stereo partly drawn) [compound 63] it was 6.29.
For the compound `COc1cc(F)c(F)cc1C(=O)N[C@@H]1C2CCC(/C2=C/C=C/c2ccccc2)[C@@H]1C(=O)Nc1ccc(F)c(C(F)(F)F)c1` (stereo partly drawn) [compound 64], the negative logarithm of the EC50 (pEC50) was 6.28.
The same measure, in the same setting: then `COc1cc(F)c(F)cc1C(=O)N[C@@H]1C2CCC(/C2=C/c2cnn(C)c2)[C@@H]1C(=O)Nc1ccc(F)c(C(F)(F)F)c1` (stereo partly drawn) [compound 66], with 5.77; and `COc1cc(F)c(F)cc1C(=O)N[C@@H]1C2CCC(/C2=C/C=C/CCO)[C@@H]1C(=O)Nc1ccc(F)c(C(F)(F)F)c1` (stereo partly drawn) [compound 67], with 5.77; and `COc1cc(F)c(F)cc1C(=O)N[C@@H]1C2CCC(/C2=C/c2ccccc2C#N)[C@@H]1C(=O)Nc1ccc(F)c(C(F)(F)F)c1` (stereo partly drawn) [compound 68], with 5.49.
On to `COc1cc(F)c(F)cc1C(=O)N[C@@H]1C2CCC(/C2=C/c2cccc(CN3CCOCC3)c2)[C@@H]1C(=O)Nc1ccc(F)c(C(F)(F)F)c1` (stereo partly drawn) [compound 70], for which the pEC50 was 5.54.
Still for that read-out and setting: in the case of `COc1cc(F)c(F)cc1C(=O)N[C@@H]1C2CCC(/C2=C2\CCc3ccccc32)[C@@H]1C(=O)Nc1ccc(F)c(C(F)(F)F)c1` (stereo partly drawn) [compound 72] it was 6.60; in that of `CNC(=O)/C=C1\C2CCC1[C@H](C(=O)Nc1ccc(F)c(C(F)(F)F)c1)[C@@H]2NC(=O)c1cc(F)c(F)cc1OC` (stereo partly drawn) [compound 73], 5.62; in that of `COc1cc(F)c(F)cc1C(=O)N[C@@H]1C2CCC(C2=C(C)C)[C@@H]1C(=O)Nc1ccnc(C(F)(F)F)c1` (stereo partly drawn) [compound 75], 5.59.
For the compound `COc1ccc(-c2ccc(N3CCOCC3)nc2)cc1C(=O)N[C@H]1[C@@H](C(=O)Nc2ccc(F)c(C(F)(F)F)c2)[C@H]2CC[C@@H]1C2=C(C)C` [compound 81], the negative-log EC50 (pEC50) is 7.41.
Regarding `COc1ccc(-c2cccnc2F)cc1C(=O)N[C@H]1[C@@H](C(=O)Nc2ccc(F)c(C(F)(F)F)c2)[C@H]2CC[C@@H]1/C2=C\c1ccccc1` [compound 82], the negative-log EC50 (pEC50) was 7.39.
As to `COc1ccc(-c2ccc(C(=O)O)cc2F)cc1C(=O)N[C@H]1[C@@H](C(=O)Nc2ccc(F)c(C(F)(F)F)c2)[C@H]2CC[C@@H]1C2=C(C)C` [compound 84], the pEC50 is 6.96.
Same read-out and setting: in the case of `COc1ccc(-c2ccnc(N3CCOCC3)c2F)cc1C(=O)N[C@H]1[C@@H](C(=O)Nc2ccc(F)c(C(F)(F)F)c2)[C@H]2CC[C@@H]1C2=C(C)C` [compound 85] it was 6.89.

The assay is the same for the next values; noted with them: cAMP hRXFP1 HEK293 Assay EC50, HEK293 cells stably expressing human RXFP1, 30 min at room temperature.
Consider `COc1cc(F)c(F)cc1C(=O)N[C@@H]1C2CCC(/C2=C/c2c(Cl)cccc2Cl)[C@@H]1C(=O)Nc1ccc(F)c(C(F)(F)F)c1` (stereo partly drawn) [compound 69], for which the pEC50 is 5.43.
Same read-out and setting: in the case of `COc1ccc(-c2cc(C(=O)O)ccc2F)cc1C(=O)N[C@H]1[C@@H](C(=O)Nc2ccc(F)c(C(F)(F)F)c2)[C@H]2CC[C@@H]1/C2=C\c1ccccc1` [compound 80] it was 7.96; in that of `COc1ccc(-c2ccc(C(=O)O)cc2)cc1C(=O)N[C@H]1[C@@H](C(=O)Nc2ccc(F)c(C(F)(F)F)c2)[C@H]2CC[C@@H]1C2=C(C)C` [compound 83], 7.18.
